Data on five compounds can be found in patent US4489090A, “Dibenzocycloalkanamido and dibenzothioxanthenyl benzoic acids” (American Cyanamid Company, priority 1983, dated 1984).

This test concerns the target T1, fatty acyl CoA:cholesterol acyl transferase (ACAT) (Rattus norvegicus, UniProt O70536).
T1 construct: The supernatant, containing the microsomal fraction, served as the source of the cholesterol-esterifying enzyme; from tissue; host or cells: rat adrenals, homogenate supernatant (1,000 x g) containing the microsomal fraction
T1 sequence (O70536 1-545): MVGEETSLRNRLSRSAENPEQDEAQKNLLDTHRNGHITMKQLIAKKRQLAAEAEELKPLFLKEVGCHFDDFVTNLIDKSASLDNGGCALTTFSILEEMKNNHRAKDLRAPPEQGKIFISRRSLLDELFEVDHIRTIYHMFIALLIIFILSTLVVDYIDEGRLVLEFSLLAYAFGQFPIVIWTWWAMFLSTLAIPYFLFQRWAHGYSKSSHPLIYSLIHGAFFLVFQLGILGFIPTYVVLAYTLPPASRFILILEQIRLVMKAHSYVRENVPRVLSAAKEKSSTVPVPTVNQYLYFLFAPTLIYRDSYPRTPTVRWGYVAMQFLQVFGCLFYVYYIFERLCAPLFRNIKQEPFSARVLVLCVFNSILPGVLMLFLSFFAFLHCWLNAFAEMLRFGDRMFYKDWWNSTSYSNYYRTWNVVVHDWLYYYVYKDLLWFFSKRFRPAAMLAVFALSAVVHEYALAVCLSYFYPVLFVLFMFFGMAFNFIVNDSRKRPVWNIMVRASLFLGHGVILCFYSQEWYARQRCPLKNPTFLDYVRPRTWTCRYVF
The test can be described thus: Inhibition of enzymatic esterification of cholesterol (ACAT) in rat adrenal supernatant containing the microsomal fraction. In kind it is biochemical. Conditions: final concentration of test compound 5.2 μg./ml., 14C-oleoyl CoA, 37° C., read-out: % INHIBITION (percent inhibition of the ACAT enzyme as compared to control values). The method, then:
The compounds of the present invention were tested for their ability to inhibit the enzymatic esterification of cholesterol according to the following procedure:
Rat adrenals were homogenized in 0.2M monobasic potassium phosphate buffer, pH 7.4, and centrifuged at 1,000 times gravity for 15 minutes at 5° C. The supernatant, containing the microsomal fraction, served as the source of the cholesterol-esterifying enzyme, fatty acyl CoA:cholesterol acyl transferase (ACAT). A mixture comprising 50 parts of adrenal supernatant, 10 parts of albumin (BSA) (50 mg./ml.), 20 parts of oleoyl CoA (^14 C-0.4 μCi), 3 parts of test compound, and 500 parts of buffer was pre-incubated at 37° C. for 10 minutes. After treatment with 20 parts of oleoyl CoA (^14 C-0.4 μCi), the mixture was incubated at 37° C. for 10 minutes. A control mixture, omitting the test compound, was prepared and treated in the same manner. The lipids from the incubation mixture were extracted into an organic solvent and separated by thin-layer chromatography. The cholesterol ester fraction was counted in a scintillation counter. This procedure is a modification of that described by Hashimoto, et al., Life Scie., 12 (Part II), 1-12 (1973).
The results of this test on representative compounds of this invention appear in Table I. The final concentration of the test compound was 5.2 μg./ml., and effectiveness of the compound is expressed as percent inhibition of the ACAT enzyme as compared to control values.
Broadly, the inhibition is how much of the control response was suppressed. With `O=C(C=C1c2ccccc2C=Cc2ccccc21)Nc1ccc(C(=O)O)cc1` [4-(5H-Dibenzo[a,d]cycloheptene-Δ^5,α -acetamido) benzoic acid], the inhibition at 5.2 µg/mL was found to be 47%.

`O=C(C=C1c2ccccc2CCc2ccccc21)Nc1ccc(C(=O)O)cc1` [p-(10,11-Dihydro-5H-dibenzo[a,d]cycloheptene-Δ^5,α -acetamido)benzoic acid]: the inhibition at 5.2 µg/mL amounted to 51%.

`CCOC(=O)c1ccc(NC(=O)CC2c3ccccc3Sc3ccccc32)cc1` [Ethyl 4-[(9-thioxanthenyl)acetamido]benzoate]: the inhibition at 5.2 µg/mL came out at 9%.

Turning to `CCOC(=O)c1ccc(NC(=O)C=C2c3ccccc3C=Cc3ccccc32)cc1` [Ethyl 4-(5H-dibenzo[a,d]cycloheptene-Δ^5,α -acetamido) benzoate], the inhibition at 5.2 µg/mL is 20%.

Consider `O=C(CC1c2ccccc2Sc2ccccc21)Nc1ccc(C(=O)O)cc1` [4-[Thioxanthene-9-acetamido]benzoic acid, 4-[(9-Thioxanthenyl)acetamido]benzoic acid], for which the inhibition at 5.2 µg/mL was 37%.
